Measured values as given in article PMC10108353, “Design and Pharmacological Characterization of α4β1 Integrin Cyclopeptide Agonists: Computational Investigation of Ligand Determinants for Agonism versus Antagonism” (Journal of Medicinal Chemistry, 2023).
Where two headings read alike, the source gives them in different places. Starred links: 1 amine or outer side, 2 acyl side, 3 side chain; linkers in the order of their positions; H or OH if unused. Positions of bridges follow the written chain, without caps; N, C: chain ends. Non-standard residues stand in square brackets, D forms with d. Residues, ends and D or L forms follow the SMILES beside them. Groups on a side chain read outwards from the residue. *: point of attachment. dPhe(4-NH2) = Nc1ccc(C[C@@H](N)C(=O)O)cc1; Phe(4-NH2) = Nc1ccc(C[C@H](N)C(=O)O)cc1; NH(2-Me-phenyl) = Cc1ccccc1N*; Phg = N[C@H](C(=O)O)c1ccccc1; d(β3hA) = C[C@@H](N)CC(=O)O; CO = O=C([*:1])[*:2]; NHPr = CCCN*

What was measured:
α4β1 integrin [1] = target: T1, α4β1 integrin (Homo sapiens, UniProt P05556+P13612); assay: Jurkat E6.1 cell adhesion to FN; settings: for agonist or antagonist behaviour, FN/Jurkat E6.1 α4β1: agonist = adhesion index >1, antagonist = adhesion index <1
Description: (§1) Cells were seeded in 96-well plates coated with the specific natural human recombinant ligands (Table 1) and allowed to adhere in the presence of increasing concentrations (10^–10 to 10^–4 M) of the synthesized CPPs before the determination of the number of adherent cells (as described in Experimental Section).
For adhesion assays on Jurkat E6.1, RPMI8866, or HL60 cells, black 96-well plates were coated overnight at 4 °C with VCAM-1 or ICAM-1 or MAdCAM-1 (5 μg/mL) or Fg (10 μg/mL). The cells were counted, stained with CellTracker green CMFDA (12.5 μM, 30 min at 37 °C, Life Technologies), and after three washes, were preincubated with increasing concentrations of new CPP (10^–10 to 10^–4 M) or with the vehicle (methanol) for 30 min at 37 °C. Then cells were plated (500 000/well) on coated wells and incubated for 30 min at 37 °C. After three washes, adhered cells were lysed with 0.5% Triton X-100 in PBS (30 min at 4 °C) and fluorescence was measured (Ex485 nm/Em535 nm) in an EnSpire Multimode Plate Reader (PerkinElmer, Waltham, MA). For adhesion assays mediated by α5β1 integrin, 96-well plates were coated by passive adsorption with FN (10 μg/mL) overnight at 4 °C. K562 cells were counted and preincubated with various concentrations of the peptides or with the vehicle (methanol) for 30 min at RT. Afterward, the cells were plated (50 000 cells/well) and incubated at RT for 1 h. The wells were then washed with 1% BSA in PBS (phosphate-buffered saline) to take off nonadherent cells, and 50 μL of hexosaminidase substrate was added; after addition of 100 μL of stopping solution, the plates were read at 405 nm. In both types of adhesion assay, the number of adherent cells was determined by comparison with a standard curve made in the same plate. Experiments were carried out in quadruplicate and repeated at least three times.
Jurkat E6.1 (expressing α4β1 and αLβ2 integrin), K562 (expressing α5β1 integrin) and HL60 (expressing αMβ2 integrin) cell lines were purchased from ATCC (Rockville, MD, USA); these cells were routinely cultured in RPMI-1640 (Life Technologies) supplemented with glutamine and 10% FBS.
Cells were grown at 37 °C under 5% CO2 humidified atmosphere.

[2] = amide bond, 16-membered ring, HBTU/HOBt/DIPEA, DMF, 25.0 °C
[3] = test system: ERK1/2 phosphorylation mediated by α4β1 integrin; assay: ERK1/2 phosphorylation in Jurkat E6.1 cells (Western blot); assay type: cell-based; settings: compound 10^–7 to 10^–9 M, no FN, vs vehicle
Description: Intracellular signaling generated by the interaction of ECM components with α4β1 integrin produces an increase in the phosphorylation of cytoplasmatic second messengers such as ERK1/2 that contribute to α4 integrin-mediated cell functions.
Western blot analysis was performed as previously described, with the following modifications. […] On the other hand, after 1 h incubation with integrin antagonists, the cells were then seeded on FN (10 μg/mL) coated plates for 1 h. Integrin agonists were not incubated with FN. At the end of the incubation time, Jurkat E6.1 cells were lysed on ice using a mammalian protein extraction reagent (M-PER; Pierce, Rockford, IL) supplemented with a phosphatase inhibitor cocktail. Protein extracts were quantified using a BCA protein assay kit (Pierce), separated by 12% SDS-PAGE gel, transferred onto nitrocellulose membranes, and immunoblotted with anti-phospho-ERK1/2 (1:1000) (Cell Signaling Technology, Danvers, MA) or anti-total ERK1/2 antibodies (1:2500) (Cell Signaling Technology). Protocols for digital image acquisition and analysis have been previously described.[73] Densitometric analysis of the bands is reported (mean ± SD; n = 3); the amount of phosphorylated ERK1/2 (pERK1/2) is normalized to that of total ERK1/2 (totERK1/2). Experiments were replicated independently at least three times. Statistical analyses were performed using one-way ANOVA and the post hoc Newman–Keuls test.

α4β1 integrin [4] = target: T1, α4β1 integrin; assay: Jurkat E6.1 cell adhesion to VCAM-1; settings: agonist = adhesion index >1, antagonist = adhesion index <1
Description: as §1
For adhesion assays on Jurkat E6.1, RPMI8866, or HL60 cells, black 96-well plates were coated overnight at 4 °C with VCAM-1 or ICAM-1 or MAdCAM-1 (5 μg/mL) or Fg (10 μg/mL). The cells were counted, stained with CellTracker green CMFDA (12.5 μM, 30 min at 37 °C, Life Technologies), and after three washes, were preincubated with increasing concentrations of new CPP (10^–10 to 10^–4 M) or with the vehicle (methanol) for 30 min at 37 °C. Then cells were plated (500 000/well) on coated wells and incubated for 30 min at 37 °C. After three washes, adhered cells were lysed with 0.5% Triton X-100 in PBS (30 min at 4 °C) and fluorescence was measured (Ex485 nm/Em535 nm) in an EnSpire Multimode Plate Reader (PerkinElmer, Waltham, MA). For adhesion assays mediated by α5β1 integrin, 96-well plates were coated by passive adsorption with FN (10 μg/mL) overnight at 4 °C. K562 cells were counted and preincubated with various concentrations of the peptides or with the vehicle (methanol) for 30 min at RT. Afterward, the cells were plated (50 000 cells/well) and incubated at RT for 1 h. The wells were then washed with 1% BSA in PBS (phosphate-buffered saline) to take off nonadherent cells, and 50 μL of hexosaminidase substrate was added; after addition of 100 μL of stopping solution, the plates were read at 405 nm. In both types of adhesion assay, the number of adherent cells was determined by comparison with a standard curve made in the same plate. Experiments were carried out in quadruplicate and repeated at least three times. […]

T1 sequence (P13612 34-1032): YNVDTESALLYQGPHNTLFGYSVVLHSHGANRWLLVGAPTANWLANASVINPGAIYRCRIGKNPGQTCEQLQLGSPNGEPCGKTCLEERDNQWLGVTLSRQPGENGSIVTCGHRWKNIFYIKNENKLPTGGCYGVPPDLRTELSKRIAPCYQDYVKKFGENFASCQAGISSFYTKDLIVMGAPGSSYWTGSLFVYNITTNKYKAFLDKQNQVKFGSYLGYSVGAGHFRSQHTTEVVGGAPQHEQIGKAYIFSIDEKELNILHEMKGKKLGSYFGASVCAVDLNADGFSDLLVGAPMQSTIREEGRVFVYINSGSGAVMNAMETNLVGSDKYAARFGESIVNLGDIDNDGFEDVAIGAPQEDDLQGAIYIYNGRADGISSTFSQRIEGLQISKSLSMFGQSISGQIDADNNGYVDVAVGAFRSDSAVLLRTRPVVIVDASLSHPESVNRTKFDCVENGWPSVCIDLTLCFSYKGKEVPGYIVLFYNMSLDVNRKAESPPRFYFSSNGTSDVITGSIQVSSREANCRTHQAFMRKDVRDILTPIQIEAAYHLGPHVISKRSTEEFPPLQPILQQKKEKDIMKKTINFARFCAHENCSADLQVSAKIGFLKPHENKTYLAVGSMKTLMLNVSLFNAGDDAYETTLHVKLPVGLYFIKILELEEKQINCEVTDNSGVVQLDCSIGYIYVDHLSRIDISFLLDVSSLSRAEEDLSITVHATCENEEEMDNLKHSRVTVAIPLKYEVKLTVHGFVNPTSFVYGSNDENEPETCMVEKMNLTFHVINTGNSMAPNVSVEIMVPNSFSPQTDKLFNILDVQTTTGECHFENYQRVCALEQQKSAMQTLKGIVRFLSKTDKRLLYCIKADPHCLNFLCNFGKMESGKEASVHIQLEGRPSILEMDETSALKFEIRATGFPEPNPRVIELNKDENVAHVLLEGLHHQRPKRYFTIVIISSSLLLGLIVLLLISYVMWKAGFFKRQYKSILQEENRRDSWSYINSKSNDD
T1 sequence (P05556 21-798): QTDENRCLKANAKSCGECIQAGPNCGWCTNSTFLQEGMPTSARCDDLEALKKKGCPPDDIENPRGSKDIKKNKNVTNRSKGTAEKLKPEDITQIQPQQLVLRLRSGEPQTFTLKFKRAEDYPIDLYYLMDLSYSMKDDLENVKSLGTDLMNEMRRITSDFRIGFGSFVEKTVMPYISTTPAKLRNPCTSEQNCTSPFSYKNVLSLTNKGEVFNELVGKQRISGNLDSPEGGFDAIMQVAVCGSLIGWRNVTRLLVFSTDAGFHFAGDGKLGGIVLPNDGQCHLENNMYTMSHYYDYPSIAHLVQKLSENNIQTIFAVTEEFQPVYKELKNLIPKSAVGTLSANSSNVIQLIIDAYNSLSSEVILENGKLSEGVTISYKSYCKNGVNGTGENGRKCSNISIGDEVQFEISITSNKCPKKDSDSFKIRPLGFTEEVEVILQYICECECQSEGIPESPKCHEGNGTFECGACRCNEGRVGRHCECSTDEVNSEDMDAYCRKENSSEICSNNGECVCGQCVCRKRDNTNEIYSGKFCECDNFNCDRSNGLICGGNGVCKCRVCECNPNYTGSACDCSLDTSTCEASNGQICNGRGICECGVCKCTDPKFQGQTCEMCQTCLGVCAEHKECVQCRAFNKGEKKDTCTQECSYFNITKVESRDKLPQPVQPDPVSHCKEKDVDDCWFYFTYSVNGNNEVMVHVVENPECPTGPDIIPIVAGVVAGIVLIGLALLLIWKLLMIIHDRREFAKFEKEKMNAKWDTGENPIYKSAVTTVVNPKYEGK

In the case of `Cc1ccccc1NC(=O)Nc1ccc(C[C@@H]2NC(=O)C[C@@H](C)NC(=O)[C@H](C(C)C)NC(=O)[C@H](CC(=O)O)NC(=O)[C@H](CC(C)C)NC2=O)cc1` [11a, c[(S)-Phu-Leu-Asp-Val-(R)-β^3homoAla]] (cyclo([Phe(4-NH2)]([CO-NH(2-Me-phenyl)])LDV[d(β3hA)])), the IC50 (α4β1 integrin [1]) is reported as > 5 µM.
For `CCCNC(=O)[C@@H]1CC(=O)N[C@@H](Cc2ccc(NC(=O)Nc3ccccc3C)cc2)C(=O)N[C@@H](CC(C)C)C(=O)N[C@@H](CC(=O)OCc2ccccc2)C(=O)N[C@@H](C(C)C)C(=O)N1` [H-Phu-Leu-Asp(OBn)-Val-isoAsp(NHPr)-OH?], the ring closure, yield after HPLC ([2]; from H-Phu-Leu-Asp(OBn)-Val-isoAsp(NHPr)-OH?) was 27%.
`Cc1ccccc1NC(=O)Nc1ccc(C[C@H]2NC(=O)C[C@H](C(=O)OCc3ccccc3)NC(=O)[C@H](C(C)C)NC(=O)[C@H](CC(=O)OCc3ccccc3)NC(=O)[C@H](CC(C)C)NC2=O)cc1` [H-dPhu-Leu-Asp(OBn)-Val-disoAsp(OBn)-OH] gave a ring closure, yield after HPLC ([2]; from H-dPhu-Leu-Asp(OBn)-Val-disoAsp(OBn)-OH) of 34%.
For `Cc1ccccc1NC(=O)Nc1ccc(C[C@@H]2NC(=O)C[C@@H](C(=O)OCc3ccccc3)NC(=O)[C@H](C(C)C)NC(=O)[C@H](CC(=O)OCc3ccccc3)NC(=O)[C@H](CC(C)C)NC2=O)cc1` [H-Phu-Leu-Asp(OBn)-Val-isoAsp(OBn)-OH], the ring closure, yield after HPLC ([2]; from H-Phu-Leu-Asp(OBn)-Val-isoAsp(OBn)-OH) was 28%.
Work on `Cc1ccccc1NC(=O)Nc1ccc(C[C@H]2NC(=O)C[C@@H](C(=O)OCc3ccccc3)NC(=O)[C@H](c3ccccc3)NC(=O)[C@H](CC(=O)OCc3ccccc3)NC(=O)[C@H](CC(C)C)NC2=O)cc1` [H-dPhu-Leu-Asp(OBn)-Phg-isoAsp(OBn)-OH?] yielded a ring closure, yield after HPLC ([2]; from H-dPhu-Leu-Asp(OBn)-Phg-isoAsp(OBn)-OH?) of 43%.
For `Cc1ccccc1NC(=O)Nc1ccc(C[C@H]2NC(=O)C[C@H](C(=O)O)NC(=O)[C@H](C(C)C)NC(=O)[C@H](CC(=O)O)NC(=O)[C@H](CC(C)C)NC2=O)cc1` [3d, c[(R)-Phu-Leu-Asp-Val-(R)-isoAsp]] ([dPhe(4-NH2)]([CO-NH(2-Me-phenyl)])LDV[dD]-OH; lactam N-5 (inferred)), the “effect on ERK1/2 phosphorylation, compound administered alone” value [3] was “significant concentration-dependent increase of ERK1/2 phosphorylation”, the “agonist or antagonist behaviour, FN/Jurkat E6.1 α4β1” value (α4β1 integrin [1]) was “agonist” and the “agonist or antagonist behaviour, VCAM-1/Jurkat E6.1 α4β1” value (α4β1 integrin [4]) was “agonist”.
Compound `Cc1ccccc1NC(=O)Nc1ccc(C[C@@H]2NC(=O)C[C@H](C(=O)OCc3ccccc3)NC(=O)[C@H](C(C)C)NC(=O)[C@H](CC(=O)OCc3ccccc3)NC(=O)[C@H](CC(C)C)NC2=O)cc1` [H-Phu-Leu-Asp(OBn)-Val-disoAsp(OBn)-OH] has a ring closure, yield after HPLC ([2]; from H-Phu-Leu-Asp(OBn)-Val-disoAsp(OBn)-OH) of 19%.
`Cc1ccccc1NC(=O)Nc1ccc(C[C@@H]2NC(=O)C[C@@H](C(=O)OCc3ccccc3)NC(=O)[C@H](C(C)C)NC(=O)[C@H](CC(=O)OCc3ccccc3)NC(=O)[C@H](CC(C)C)NC2=O)cc1` [H-Asp(OBn)-Val-isoAsp(OBn)-Phu-Leu-OH?] showed a ring closure, yield after HPLC ([2]; from H-Asp(OBn)-Val-isoAsp(OBn)-Phu-Leu-OH?) of 0%.
Work on `Cc1ccccc1NC(=O)Nc1ccc(C[C@@H]2NC(=O)C[C@@H](C(=O)OCc3ccccc3)NC(=O)[C@H](C(C)C)NC(=O)[C@H](C)NC(=O)[C@H](CC(C)C)NC2=O)cc1` [H-Phu-Leu-Ala-Val-isoAsp(OBn)-OH] yielded a ring closure, yield after HPLC ([2]; from H-Phu-Leu-Ala-Val-isoAsp(OBn)-OH) of 37%.
With `CCCNC(=O)[C@@H]1CC(=O)N[C@@H](Cc2ccc(NC(=O)Nc3ccccc3C)cc2)C(=O)N[C@@H](CC(C)C)C(=O)N[C@@H](CC(=O)O)C(=O)N[C@@H](C(C)C)C(=O)N1` [compound 13, c[(S)-PhU-Leu-Asp-Val-(S)-isoAsp(nPr)]] ([Phe(4-NH2)]([CO-NH(2-Me-phenyl)])LDVD-NHPr; lactam N-5 (inferred)) the IC50 (α4β1 integrin [1]) was > 5 µM and the “agonist or antagonist behaviour, FN/Jurkat E6.1 α4β1” value (α4β1 integrin [1]) was “complete loss of activity”.
For `Cc1ccccc1NC(=O)Nc1ccc(C[C@H]2NC(=O)C[C@@H](C)NC(=O)[C@H](C(C)C)NC(=O)[C@H](CC(=O)OCc3ccccc3)NC(=O)[C@H](CC(C)C)NC2=O)cc1` [H-dPhu-Leu-Asp(OBn)-Val-(R)-β3homoAla-OH], the ring closure, yield after HPLC ([2]; from H-dPhu-Leu-Asp(OBn)-Val-(R)-β3homoAla-OH) was 33%.
With `Cc1ccccc1NC(=O)Nc1ccc(C[C@H]2NC(=O)C[C@@H](C(=O)O)NC(=O)[C@H](c3ccccc3)NC(=O)[C@H](CC(=O)O)NC(=O)[C@H](CC(C)C)NC2=O)cc1` [compound 16, c[(R)-Phu-Leu-Asp-Phg-(S)-isoAsp]] ([dPhe(4-NH2)]([CO-NH(2-Me-phenyl)])LD[Phg]D-OH; lactam N-5) the IC50 (α4β1 integrin [1]) was > 5 µM.
`Cc1ccccc1NC(=O)Nc1ccc(C[C@@H]2NC(=O)C[C@@H](C)NC(=O)[C@H](C(C)C)NC(=O)[C@H](CC(=O)OCc3ccccc3)NC(=O)[C@H](CC(C)C)NC2=O)cc1` [H-Phu-Leu-Asp(OBn)-Val-(R)-β3homoAla-OH] showed a ring closure, yield after HPLC ([2]; from H-Phu-Leu-Asp(OBn)-Val-(R)-β3homoAla-OH) of 50%.
In the case of `Cc1ccccc1NC(=O)Nc1ccc(C[C@@H]2NC(=O)C[C@@H](C(=O)O)NC(=O)[C@H](C(C)C)NC(=O)[C@H](CC(=O)O)NC(=O)[C@H](Cc3ccccc3)NC2=O)cc1` [compound 14, c[(S)-Phu-Phe-Asp-Val-(S)-isoAsp]] ([Phe(4-NH2)]([CO-NH(2-Me-phenyl)])FDVD-OH; lactam N-5), the IC50 (α4β1 integrin [1]) is reported as > 5 µM.
Work on `Cc1ccccc1NC(=O)Nc1ccc(C[C@@H]2NC(=O)C[C@@H](C(=O)OCc3ccccc3)NC(=O)[C@H](C(C)C)NC(=O)[C@H](CC(=O)OCc3ccccc3)NC(=O)[C@H](CC(C)C)NC2=O)cc1` [H-isoAsp(OBn)-Phu-Leu-Asp(OBn)-Val-OH] yielded a ring closure, yield after HPLC ([2]; from H-isoAsp(OBn)-Phu-Leu-Asp(OBn)-Val-OH) of 0%.
Compound `Cc1ccccc1NC(=O)Nc1ccc(C[C@@H]2NC(=O)C[C@@H](C(=O)OCc3ccccc3)NC(=O)[C@H](C(C)C)NC(=O)[C@H](C)NC(=O)[C@H](Cc3ccccc3)NC2=O)cc1` [H-Phu-Phe-Ala-Val-isoAsp(OBn)-OH] has a ring closure, yield after HPLC ([2]; from H-Phu-Phe-Ala-Val-isoAsp(OBn)-OH) of 48%.
For `Cc1ccccc1NC(=O)Nc1ccc(C[C@H]2NC(=O)C[C@@H](C(=O)O)NC(=O)[C@H](C(C)C)NC(=O)[C@H](C)NC(=O)[C@H](CC(C)C)NC2=O)cc1` [12c, c[(R)-Phu-Leu-Ala-Val-(S)-isoAsp]] ([dPhe(4-NH2)]([CO-NH(2-Me-phenyl)])LAVD-OH; lactam N-5 (inferred)), the “agonist or antagonist behaviour, FN/Jurkat E6.1 α4β1” value (α4β1 integrin [1]) was “agonist”.
`Cc1ccccc1NC(=O)Nc1ccc(C[C@@H]2NC(=O)C[C@@H](C(=O)OCc3ccccc3)NC(=O)[C@H](C(C)C)NC(=O)[C@H](CC(=O)OCc3ccccc3)NC(=O)[C@H](Cc3ccccc3)NC2=O)cc1` [H-Phu-Phe-Asp(OBn)-Val-isoAsp(OBn)-OH] gave a ring closure, yield after HPLC ([2]; from H-Phu-Phe-Asp(OBn)-Val-isoAsp(OBn)-OH) of 25%.
`Cc1ccccc1NC(=O)Nc1ccc(C[C@H]2NC(=O)C[C@@H](C(=O)OCc3ccccc3)NC(=O)[C@H](C(C)C)NC(=O)[C@H](C)NC(=O)[C@H](CC(C)C)NC2=O)cc1` [H-dPhu-Leu-Ala-Val-isoAsp(OBn)-OH] showed a ring closure, yield after HPLC ([2]; from H-dPhu-Leu-Ala-Val-isoAsp(OBn)-OH) of 15%.
In the case of `Cc1ccccc1NC(=O)Nc1ccc(C[C@H]2NC(=O)C[C@@H](C(=O)OCc3ccccc3)NC(=O)[C@H](C(C)C)NC(=O)[C@H](CC(=O)OCc3ccccc3)NC(=O)[C@H](CC(C)C)NC2=O)cc1` [H-dPhu-Leu-Asp(OBn)-Val-isoAsp(OBn)-OH], the ring closure, yield after HPLC ([2]; from H-dPhu-Leu-Asp(OBn)-Val-isoAsp(OBn)-OH) is reported as 29%.
